Tests used:
CASOB (Sicklepod) = assay: Postemergence herbicidal evaluation; assay type: in vivo, Cassia obtusifolia; conditions: postemergence
In short: (§1)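 Seedlings grown about two weeks were sprayed at 40 psi with compound dispersed in 50/50 acetone/water plus 0.5% TWEEN 20, at about 0.0156 to 0.500 kg/ha. Plants were kept in the greenhouse and scored 4–5 weeks later on a 0–9 visual scale against untreated controls.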

[1] = system: CHEAL (Lambsquarters, Common); assay: Postemergence herbicidal evaluation; assay type: in vivo, Chenopodium album; conditions: postemergence
In short: as §1

GALAP (Galium) = assay: Postemergence herbicidal evaluation; assay type: in vivo, Galium aparine; conditions: postemergence
In short: as §1

[2] = system: IPOHE (Morningglory, Ivyleaf); assay: Postemergence herbicidal evaluation; assay type: in vivo, Ipomoea hederacea; conditions: postemergence
In short: as §1

ECHCG (Barnyardgrass) [3] = assay: Postemergence herbicidal evaluation; assay type: in vivo, Echinochloa crus-galli; conditions: postemergence
In short: as §1

SETVI (Foxtail, Green) = assay: Postemergence herbicidal evaluation; assay type: in vivo, Setaria viridis; conditions: postemergence
In short: as §1

[4] = system: GLXMAW (Soybean, Williams); assay: Postemergence herbicidal evaluation; assay type: in vivo, Glycine max, (L.) Merr. cv Williams; conditions: postemergence
In short: as §1

[5] = system: TRZAWR (Wheat, Winter, cv Riband); assay: Postemergence herbicidal evaluation; assay type: in vivo, Triticum aestivum; conditions: postemergence
In short: as §1

ABUTH (Velvetleaf) = assay: Preemergence herbicidal evaluation; assay type: in vivo, Abutilon theophrasti; conditions: rated 4-5 weeks after treatment
In short: (§2)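 Test compound, dissolved in aqueous acetone, was sprayed over planted soil cups at an equivalent of about 0.0156 to 0.500 kg/ha; seeds had been mixed with potting soil. Greenhouse growth followed, with visual 0-9 scoring of injury at four to five weeks.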

ECHCG (Barnyardgrass) [6] = assay: Preemergence herbicidal evaluation; assay type: in vivo, Echinochloa crus-galli; conditions: rated 4-5 weeks after treatment
In short: as §2

ZEAMX (Corn, Field) = assay: Preemergence herbicidal evaluation; assay type: in vivo, Zea mays; conditions: rated 4-5 weeks after treatment
In short: as §2

CYPIR (Rice Flatsedge) = assay: Preemergence weed control under flooded paddy conditions; assay type: in vivo, Cyperus iria; conditions: rated 3-4 weeks after treatment
In short: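 Visual injury scored 0-9 against control three to four weeks post-treatment, greenhouse-grown. Application: acetone/water (50/50) solutions dosed directly into flood water (1.5-3 cm over silt loam, planted top 0.5 cm), roughly 0.0313 to 0.500 kg/ha active ingredient.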

MOOVA (Monochoria) = assay: as above; assay type: in vivo, Monochoria vaginalis; conditions: rated 3-4 weeks after treatment
In short: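 Greenhouse paddy assay. Acetone/water (50/50 v/v) solutions dosed into flood water, equivalent to about 0.0313 to 0.500 kg/ha active ingredient, over seeds planted 0.5 cm deep in silt loam. Score: 0-9 visual, based on stand, vigor, malformation, size and chlorosis, 3 to 4 weeks after treatment.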

SMILES: CCOC(=O)CN1C(=O)C(CC(=O)NS(=O)(=O)C(C)C)SC1=Nc1cc(-n2c(=O)cc(C(F)(F)F)n(C)c2=O)c(F)cc1Cl (stereo not drawn) [Compound 117, Ethyl 2-{{2-chloro-5-[3,6-dihydro-3-methyl-2,6-dioxo-4-(trifluoromethyl)-1(2H)-pyrimidinyl]-4-fluorophenyl}imino}-5-{[(isopropylsulfonyl)-carbamoyl]methyl}-4-oxo-3-thiazolidineacetate]
- herbicidal rating CASOB (CASOB (Sicklepod); rate 0.0158 kg/ha): 0.0
- herbicidal rating CASOB (CASOB (Sicklepod); rate 0.0315 kg/ha): 1.0
- herbicidal rating CASOB (CASOB (Sicklepod); rate 0.0630 kg/ha): 1.0
- herbicidal rating CHEAL ([1]; rate 0.0158 kg/ha): 0.0
- herbicidal rating CHEAL ([1]; rate 0.0315 kg/ha): 4.0
- herbicidal rating CHEAL ([1]; rate 0.0630 kg/ha): 9.0
- herbicidal rating GALAP (GALAP (Galium); rate 0.0158 kg/ha): 1.0
- herbicidal rating GALAP (GALAP (Galium); rate 0.0315 kg/ha): 1.0
- herbicidal rating GALAP (GALAP (Galium); rate 0.0630 kg/ha): 1.0
- herbicidal rating IPOHE ([2]; rate 0.0158 kg/ha): 9.0
- herbicidal rating IPOHE ([2]; rate 0.0315 kg/ha): 9.0
- herbicidal rating IPOHE ([2]; rate 0.0630 kg/ha): 9.0
- herbicidal rating ECHCG (ECHCG (Barnyardgrass) [3]; rate 0.0158 kg/ha): 1.0
- herbicidal rating ECHCG (ECHCG (Barnyardgrass) [3]; rate 0.0315 kg/ha): 2.0
- herbicidal rating ECHCG (ECHCG (Barnyardgrass) [3]; rate 0.0630 kg/ha): 1.0
- herbicidal rating SETVI (SETVI (Foxtail, Green); rate 0.0158 kg/ha): 1.0
- herbicidal rating SETVI (SETVI (Foxtail, Green); rate 0.0315 kg/ha): 2.0
- herbicidal rating SETVI (SETVI (Foxtail, Green); rate 0.0630 kg/ha): 2.0
- herbicidal rating GLXMAW ([4]; rate 0.0158 kg/ha): 5.0
- herbicidal rating GLXMAW ([4]; rate 0.0315 kg/ha): 5.0
- herbicidal rating GLXMAW ([4]; rate 0.0630 kg/ha): 6.0
- herbicidal rating TRZAWR ([5]; rate 0.0158 kg/ha): 3.0
- herbicidal rating TRZAWR ([5]; rate 0.0315 kg/ha): 3.5
- herbicidal rating TRZAWR ([5]; rate 0.0630 kg/ha): 3.5
- Preemergence herbicidal rating ABUTH (ABUTH (Velvetleaf); rate 0.0156 kg/ha): 0.0
- Preemergence herbicidal rating ABUTH (ABUTH (Velvetleaf); rate 0.0313 kg/ha): 0.0
- Preemergence herbicidal rating ABUTH (ABUTH (Velvetleaf); rate 0.0625 kg/ha): 0.0
- Preemergence herbicidal rating ABUTH (ABUTH (Velvetleaf); rate 0.1250 kg/ha): 1.0
- Preemergence herbicidal rating ABUTH (ABUTH (Velvetleaf); rate 0.2500 kg/ha): 9.0
- Preemergence herbicidal rating ECHCG (ECHCG (Barnyardgrass) [6]; rate 0.0156 kg/ha): 0.0
- Preemergence herbicidal rating ECHCG (ECHCG (Barnyardgrass) [6]; rate 0.0313 kg/ha): 0.0
- Preemergence herbicidal rating ECHCG (ECHCG (Barnyardgrass) [6]; rate 0.0625 kg/ha): 0.0
- Preemergence herbicidal rating ECHCG (ECHCG (Barnyardgrass) [6]; rate 0.1250 kg/ha): 0.0
- Preemergence herbicidal rating ECHCG (ECHCG (Barnyardgrass) [6]; rate 0.2500 kg/ha): 0.0
- Preemergence herbicidal rating ZEAMX (ZEAMX (Corn, Field); rate 0.0156 kg/ha): 0.0
- Preemergence herbicidal rating ZEAMX (ZEAMX (Corn, Field); rate 0.0313 kg/ha): 0.0
- Preemergence herbicidal rating ZEAMX (ZEAMX (Corn, Field); rate 0.0625 kg/ha): 0.0
- Preemergence herbicidal rating ZEAMX (ZEAMX (Corn, Field); rate 0.1250 kg/ha): 1.0
- Preemergence herbicidal rating ZEAMX (ZEAMX (Corn, Field); rate 0.2500 kg/ha): 0.0
- herbicidal effect rating, CYPIR (CYPIR (Rice Flatsedge); 0.0313 kg/ha): 0.0
- herbicidal effect rating, CYPIR (CYPIR (Rice Flatsedge); 0.0625 kg/ha): 2.0
- herbicidal effect rating, CYPIR (CYPIR (Rice Flatsedge); 0.1250 kg/ha): 5.0
- herbicidal effect rating, CYPIR (CYPIR (Rice Flatsedge); 0.2500 kg/ha): 6.0
- herbicidal effect rating, MOOVA (MOOVA (Monochoria); 0.0313 kg/ha): 6.0
- herbicidal effect rating, MOOVA (MOOVA (Monochoria); 0.0625 kg/ha): 7.0
- herbicidal effect rating, MOOVA (MOOVA (Monochoria); 0.1250 kg/ha): 9.0
- herbicidal effect rating, MOOVA (MOOVA (Monochoria); 0.2500 kg/ha): 9.0

SMILES: CCOC(=O)CN1C(=O)C(CC(=O)O)SC1=Nc1cc(-n2nc(C)n(C(F)F)c2=O)c(F)cc1Cl (stereo not drawn) [Compound 112, 2-{{2-Chloro-5-[4-(difluoromethyl)-4,5-dihydro-3-methyl-5-oxo-1H-1,2,4-triazol-1-yl]-4-fluorophenyl}imino}-4-oxo-3,5-thiazolidinediacetic acid, 3-ethyl ester]
- herbicidal rating CASOB (CASOB (Sicklepod); rate 0.0158 kg/ha): 1.0
- herbicidal rating CASOB (CASOB (Sicklepod); rate 0.0315 kg/ha): 1.0
- herbicidal rating CASOB (CASOB (Sicklepod); rate 0.0630 kg/ha): 2.0
- herbicidal rating CHEAL ([1]; rate 0.0158 kg/ha): 4.0
- herbicidal rating CHEAL ([1]; rate 0.0315 kg/ha): 9.0
- herbicidal rating CHEAL ([1]; rate 0.0630 kg/ha): 9.0
- herbicidal rating GALAP (GALAP (Galium); rate 0.0158 kg/ha): 0.0
- herbicidal rating GALAP (GALAP (Galium); rate 0.0315 kg/ha): 2.0
- herbicidal rating GALAP (GALAP (Galium); rate 0.0630 kg/ha): 2.0
- herbicidal rating IPOHE ([2]; rate 0.0158 kg/ha): 9.0
- herbicidal rating IPOHE ([2]; rate 0.0315 kg/ha): 9.0
- herbicidal rating IPOHE ([2]; rate 0.0630 kg/ha): 9.0
- herbicidal rating ECHCG (ECHCG (Barnyardgrass) [3]; rate 0.0158 kg/ha): 2.0
- herbicidal rating ECHCG (ECHCG (Barnyardgrass) [3]; rate 0.0315 kg/ha): 4.0
- herbicidal rating ECHCG (ECHCG (Barnyardgrass) [3]; rate 0.0630 kg/ha): 4.0
- herbicidal rating SETVI (SETVI (Foxtail, Green); rate 0.0158 kg/ha): 3.0
- herbicidal rating SETVI (SETVI (Foxtail, Green); rate 0.0315 kg/ha): 9.0
- herbicidal rating SETVI (SETVI (Foxtail, Green); rate 0.0630 kg/ha): 6.0
- herbicidal rating GLXMAW ([4]; rate 0.0158 kg/ha): 5.5
- herbicidal rating GLXMAW ([4]; rate 0.0315 kg/ha): 5.0
- herbicidal rating GLXMAW ([4]; rate 0.0630 kg/ha): 6.0
- herbicidal rating TRZAWR ([5]; rate 0.0158 kg/ha): 2.0
- herbicidal rating TRZAWR ([5]; rate 0.0315 kg/ha): 2.0
- herbicidal rating TRZAWR ([5]; rate 0.0630 kg/ha): 3.0
- Preemergence herbicidal rating ABUTH (ABUTH (Velvetleaf); rate 0.0313 kg/ha): 0.0
- Preemergence herbicidal rating ABUTH (ABUTH (Velvetleaf); rate 0.0625 kg/ha): 0.0
- Preemergence herbicidal rating ABUTH (ABUTH (Velvetleaf); rate 0.2500 kg/ha): 1.0
- Preemergence herbicidal rating ECHCG (ECHCG (Barnyardgrass) [6]; rate 0.0313 kg/ha): 0.0
- Preemergence herbicidal rating ECHCG (ECHCG (Barnyardgrass) [6]; rate 0.0625 kg/ha): 0.0
- Preemergence herbicidal rating ECHCG (ECHCG (Barnyardgrass) [6]; rate 0.1250 kg/ha): 0.0
- Preemergence herbicidal rating ECHCG (ECHCG (Barnyardgrass) [6]; rate 0.2500 kg/ha): 0.0
- Preemergence herbicidal rating ZEAMX (ZEAMX (Corn, Field); rate 0.0313 kg/ha): 0.0
- Preemergence herbicidal rating ZEAMX (ZEAMX (Corn, Field); rate 0.0625 kg/ha): 0.0
- Preemergence herbicidal rating ZEAMX (ZEAMX (Corn, Field); rate 0.1250 kg/ha): 1.0
- Preemergence herbicidal rating ZEAMX (ZEAMX (Corn, Field); rate 0.2500 kg/ha): 4.0
- CYPIR herbicidal effect rating (CYPIR (Rice Flatsedge); 0.0313 kg/ha): 0.0
- CYPIR herbicidal effect rating (CYPIR (Rice Flatsedge); 0.0625 kg/ha): 3.0
- CYPIR herbicidal effect rating (CYPIR (Rice Flatsedge); 0.1250 kg/ha): 6.0
- CYPIR herbicidal effect rating (CYPIR (Rice Flatsedge); 0.2500 kg/ha): 7.0
- MOOVA herbicidal effect rating (MOOVA (Monochoria); 0.0313 kg/ha): 9.0
- MOOVA herbicidal effect rating (MOOVA (Monochoria); 0.0625 kg/ha): 9.0
- MOOVA herbicidal effect rating (MOOVA (Monochoria); 0.1250 kg/ha): 9.0
- MOOVA herbicidal effect rating (MOOVA (Monochoria); 0.2500 kg/ha): 9.0

Reference: patent US20020137929A1, “1 - (3-heterocyclylphenyl) isothiourea, -isourea, -guanidine and -amidine herbicidal agents” (Intellectual Property Department, BASF Aktiengesellschaft, priority 1998, published 2002)
